{
  "source": "paper PMC12491680",
  "about": "(Acta Pharmaceutica Sinica. B, 2025)",
  "key": {"[1]": {"tested_on": "VRG neurons", "test": "Whole-cell recording of spontaneous action potentials in VRG neurons", "type": "cell-based, C57BL/6J mice"}, "[2]": {"tested_on": "gelsenicine (1)-poisoned mice", "test": "Antidote screening: survival of gelsenicine-poisoned mice", "type": "in vivo, Kunming mice", "conditions": "gelsenicine 0.22 mg/kg i.p."}, "[3]": {"conditions": "cited from earlier work"}, "[4]": {"test": "Detection of toxic alkaloids in mouse plasma after oral G. elegans extract", "type": "in vivo, Kunming mice", "conditions": "mice, oral G. elegans 95% ethanolic extract 200 mg/kg, blood 5 min after gavage"}, "[5]": {"tested_on": "mice", "test": "Respiratory function by whole-body plethysmography", "type": "in vivo, C57BL/6J mice", "conditions": "0.22 mg/kg intraperitoneal"}, "[6]": {"type": "in vivo, human", "conditions": "victim serum, UPLC-Q Exactive MS/MS"}, "[7]": {"tested_on": "CA1 pyramidal neurons", "test": "Whole-cell recording in hippocampal CA1 pyramidal neurons", "type": "cell-based, C57BL/6J mice"}, "[8]": {"test": "Acute toxicity of pure Gelsemium alkaloids in mice", "conditions": "both, Kunming, mouse, in vivo, ip, 30 mg/kg"}, "[9]": {"test": "Quantitative analysis of gelsenicine in medulla", "type": "in vivo, C57BL/6J mice", "conditions": "1 mg/kg intraperitoneal"}},
  "data": [
    {"molecule": "picrotoxin [reference compound]", "values": [
      {"measurement": "Effect on VRG neuron activity (firing rate vs baseline)", "setting": "[1]; picrotoxin 50 μmol/L alone", "result": "robust increase in activity"}
    ]},
    {"molecule": "CCC1(C)CC(=O)NC(=O)C1", "note": "[bemegride]", "values": [
      {"measurement": "Survival rate of poisoned mice", "setting": "[2]; antidote 6.5 mg/kg i.p.", "result": 30, "unit": "%"},
      {"measurement": "Time to peak concentration and passage into the brain", "setting": "[3]", "result": "≤ 30", "unit": "min"}
    ]},
    {"molecule": "O=C1C=C2C=C[C@@H]3C[C@@]2(O1)[C@H]1CCCCN31", "note": "[securinine]", "values": [
      {"measurement": "Survival rate of poisoned mice", "setting": "[2]; antidote 3 mg/kg i.p.", "result": 50, "unit": "%"},
      {"measurement": "Time to peak concentration in plasma", "setting": "[3]; intraperitoneal injection", "result": "≤ 9", "unit": "min"},
      {"measurement": "Time to peak concentration in the brain", "setting": "[3]; intraperitoneal injection", "result": "≤ 30", "unit": "min"}
    ]},
    {"molecule": "CCC1=N[C@H]2C[C@@]3(C(=O)N(OC)c4ccccc43)[C@H]3C[C@@H]1[C@@H]2CO3", "note": "[Compound 1, gelsenicine]", "values": [
      {"measurement": "Detection in plasma", "setting": "[4]", "result": "detected in the plasma"},
      {"measurement": "Time to severe respiratory distress after injection", "setting": "[5]", "result": "5 to 10", "unit": "min"},
      {"measurement": "Peak expiratory flow, peak inspiratory flow, frequency, tidal volume and minute ventilation", "setting": "[5]; vs saline", "result": "significant reduction"},
      {"measurement": "Time of death after administration", "setting": "[2]; mice, no antidote", "result": "around 15 min"},
      {"measurement": "Decrease of action potential firing rate", "setting": "[1]; VRG neurons, 1 μmol/L", "result": "about 60%"},
      {"measurement": "Decrease of action potential firing rate", "setting": "[1]; VRG neurons, 2 μmol/L", "result": "about 70%"},
      {"measurement": "Effect on action potential firing", "setting": "[1]; VRG neurons, 0.3 and 0.6 μmol/L", "result": "did not have an inhibitory effect"},
      {"measurement": "Effect on firing rate of picrotoxin-treated VRG neurons", "setting": "[1]; gelsenicine 1 μmol/L in the presence of picrotoxin 50 μmol/L", "result": "did not affect the firing rate"},
      {"measurement": "Detection in the clinical blood sample", "setting": "[6]", "result": "clearly detected"},
      {"measurement": "Concentration at which action potentials were suppressed", "setting": "[7]; CA1 pyramidal neurons", "result": "≥ 5", "unit": "µmol/L"},
      {"measurement": "Effect on action potential firing", "setting": "[7]; CA1 pyramidal neurons, 1 and 2 μmol/L", "result": "failed to show an inhibitory effect"},
      {"measurement": "Effect on miniature inhibitory synaptic currents (mIPSCs)", "setting": "[7]; hippocampus CA1 region, 5 μmol/L", "result": "increased the amplitude"},
      {"measurement": "LD50 at 7 days", "setting": "[8]", "result": 0.14, "unit": "mg/kg"},
      {"measurement": "Distribution to medulla", "setting": "[9]; C57BL/6 mice, 5 and 10 min", "result": "quickly distributed to medulla at 5 min, and sustained until 10 min"},
      {"measurement": "Time of death", "setting": "[9]; mice", "result": "around 10 min"}
    ]},
    {"molecule": "CCOC(=O)c1ncn2c1CN(C)C(=O)c1cc(F)ccc1-2", "note": "[flumazenil]", "values": [
      {"measurement": "Survival rate of poisoned mice", "setting": "[2]; antidote 3 mg/kg i.p.", "result": 50, "unit": "%"},
      {"measurement": "Time to peak level", "setting": "[3]; oral or intravenous, clinical and animal studies", "result": "≤ 5", "unit": "min"}
    ]},
    {"molecule": "CN1CCc2cc3c(cc2[C@H]1[C@@H]1OC(=O)c2c1ccc1c2OCO1)OCO3", "note": "[bicuculline, reference compound]", "values": [
      {"measurement": "Effect on firing of VRG neurons inhibited by gelsenicine", "setting": "[1]; bicuculline 20 μmol/L after gelsenicine 1 μmol/L", "result": "restoring the normal firing rate"}
    ]},
    {"molecule": "C=C[C@]12CN(C)[C@@H]3[C@H]4CO[C@H](C[C@H]41)[C@]1(C(=O)Nc4ccccc41)[C@@H]32", "note": "[Compound 24, gelsemine]", "values": [
      {"measurement": "Detection in the clinical blood sample", "setting": "[6]", "result": "could also be detected"}
    ]},
    {"molecule": "C/C=C1\\CN(C)[C@H]2C[C@@]3(C(=O)N(OC)c4ccccc43)[C@H]3C[C@@H]1[C@@H]2CO3", "note": "[Compound 17, humantenine]", "values": [
      {"measurement": "Detection in plasma", "setting": "[4]", "result": "detected in the plasma"},
      {"measurement": "Detection in the clinical blood sample", "setting": "[6]", "result": "clearly detected"},
      {"measurement": "LD50 at 7 days", "setting": "[8]", "result": 7.11, "unit": "mg/kg"}
    ]},
    {"molecule": "C=C[C@@]12CN(C)[C@H]3C[C@]14C(=Nc1ccccc14)[C@@H]1C[C@@H]2[C@@H]3CO1", "note": "[Compound 32, koumine]", "values": [
      {"measurement": "Detection in the clinical blood sample", "setting": "[6]", "result": "could also be detected"},
      {"measurement": "LD50 at 7 days", "setting": "[8]", "result": "> 30", "unit": "mg/kg"}
    ]}
  ]
}
